Consider five compounds from article PMC5464344, “Analgesic and anti‐inflammatory properties of novel, selective, and potent EP4 receptor antagonists” (Pharmacology Research & Perspectives, 2017).

Where “and” joins values, the source holds several entries; their conditions need not be identical. Equal entries are not always repeated.

The target in one experiment is T1, human EP1 receptor (Homo sapiens, UniProt P34995).
T1 construct: membrane preparation
T1 sequence (P34995 1-402): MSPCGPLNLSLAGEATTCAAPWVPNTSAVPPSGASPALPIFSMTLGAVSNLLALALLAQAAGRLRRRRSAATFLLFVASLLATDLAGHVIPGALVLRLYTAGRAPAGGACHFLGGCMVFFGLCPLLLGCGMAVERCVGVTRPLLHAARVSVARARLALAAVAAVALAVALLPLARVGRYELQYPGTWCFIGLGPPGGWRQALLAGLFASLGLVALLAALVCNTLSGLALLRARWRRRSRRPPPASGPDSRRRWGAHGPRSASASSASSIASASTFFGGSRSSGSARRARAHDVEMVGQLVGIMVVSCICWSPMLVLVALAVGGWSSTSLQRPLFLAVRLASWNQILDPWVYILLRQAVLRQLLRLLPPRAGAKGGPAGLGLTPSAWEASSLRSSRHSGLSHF
As to the kind of experiment: [3H]-PGE2 receptor binding assay, EP1 membranes. The protocol:
(§1) Receptor binding assays were done using membrane preparations of HEK 293 cells transfected with various prostanoid receptors using previously published procedure (Nakao et al. 2007). EP1 and EP4 membranes were prepared from recombinant HEK293 cells stably expressing human EPl receptor (GenBank Accession # AY275470, Clone ID PER0100000, UMR cDNA Resource Center, Rolla, MO) or human EP4 receptor. EP2 and EP3 membranes were prepared from HEK293 cells transiently transfected with human EP2 receptor (GenBank Accession # AY275471, Clone ID PER0200000, UMR cDNA Resource Center, Rolla, MO) or human EP3 receptor (GenBank Accession # AY429108, Clone ID PER3VI0000, UMR cDNA Resource Center, Rolla, MO) plasmids. Frozen cell pellets were homogenized in homogenization buffer (10 mmol/L Tris‐HCl, pH7.4, 250 mmol/L sucrose, 1 mmol/L EDTA, 0.3 mmol/L indomethacin and protease inhibitor cocktail with EDTA (Roche Molecular Biochemicals, catalog # 1691498)) using a Teflon/glass homogenizer. After a low speed centrifugation (200g for 15 min at 4°C) the supernatant was subjected to high speed centrifugation (30,000g for 60 min at 4°C). Membrane protein preparation was aliquoted and quick frozen on dry ice prior to storage at −80°C. […] Compounds were tested in a 96‐well format using a three‐fold dilution series to generate 10‐point curves. […] The binding reaction was performed in 200 μL MES buffer (10 mmol/L MES, pH 6.0, 10 mmol/L MgCl2, and l mmol/L EDTA) using polystyrene 96‐well plates. […] The membranes were harvested by filtration (TomTek harvester), washed four times with cold buffer (10 mmol/L MES, pH 6.0, 10 mmol/L MgCl2), dried in a 60°C oven, and the radioactivity was quantified as counts per min (CPM) using a TopCount detector. […] Data were analyzed using a 4‐parameter nonlinear logistic equation. K i Conversion from IC50 Values (K i = […] where [L] is the ligand concentration). Results are expressed as the geometric mean ± standard deviation or geometric mean ± standard error as noted.

For experiment [1], the target named is T2, Human EP4 (Homo sapiens, UniProt P35408). Briefly: [3H]-PGE2 receptor binding assay, EP4 membranes. Details: expressed in transfected cells; membrane preparation. The settings on record: HEK293 membranes, geometric mean ± SEM, read-out: hEP1-4 receptor binding EP4 Ki. As to the method:
as §1

The test system of another experiment is dogs with osteoarthritis. Details: method as in Rausch‐Derra et al. 2016. The settings on record: prospective placebo controlled study, ref Rausch‐Derra et al. 2016; cited from earlier work.
Another experiment concerns the target T3, Rat EP4 (Rattus norvegicus, UniProt P43114).
T3 construct: expressed in transfected cells
As to the kind of experiment: EP4 cAMP antagonist assay (HTRF), rat EP4. The class given is cell-based. The settings on record: read-out: cAMP Antagonism Rat EP4 IC50. As to the method: (§2) Human EP4 (GenBank Accession # AY429109, Clone ID PER0400000, UMR cDNA Resource Center, Rolla, MO) was stably expressed in HEK293 cells. Rat EP4 cDNA (GenBank Accession# NM_03276) was cloned into pcDNA 3.1 vector and stably transfected into HEK293 cells. The cell lines were maintained in DMEM (invitrogen) supplemented with 10% fetal bovine serum (FBS), 1 mmol/L sodium pyruvate, 10 mmol/L HEPES, 500 μg/mL geneticin and 2 mmol/L L‐glutamine. Confluent cultures were grown at 37°C in an atmosphere containing 5% CO2. Cells were harvested using 0.25% Trypsin‐ EDTA, suspended in freeze media at a density of 10^7cel1s/mL, and aliquots were stored in liquid nitrogen. Immediately prior to the assay, cells were thawed with DMEM and suspended in cAMP assay buffer (HBSS with 0.1% BSA, 20 mmol/L HEPES and 200 μmol/L IBMX).
CJ‐023,423 served as the positive control. To measure the cAMP levels, cAMP‐d2 conjugate and anti cAMP‐cryptate conjugate in lysis buffer were incubated with the treated cells at room temperature for 1 h. The HTRF signal was detected using an EnVision plate reader (Perkin‐Elmer, Inc., Waltham, MA, USA.) to calculate the ratio of fluorescence at 665 to 620 nm. The raw data were converted to cAMP (nmol/L) using a cAMP standard curve generated for each experiment. Data were analyzed using a 4‐parameter nonlinear logistic equation. Results are expressed as the geometric mean ± standard deviation or geometric mean ± standard error as noted.
For orientation: Time-resolved FRET reads energy transfer from a long-lived donor to a nearby acceptor.

A further experiment concerns the target T4, human EP3 receptor (Homo sapiens, UniProt P43115).
T4 sequence (P43115 1-359 limits assumed): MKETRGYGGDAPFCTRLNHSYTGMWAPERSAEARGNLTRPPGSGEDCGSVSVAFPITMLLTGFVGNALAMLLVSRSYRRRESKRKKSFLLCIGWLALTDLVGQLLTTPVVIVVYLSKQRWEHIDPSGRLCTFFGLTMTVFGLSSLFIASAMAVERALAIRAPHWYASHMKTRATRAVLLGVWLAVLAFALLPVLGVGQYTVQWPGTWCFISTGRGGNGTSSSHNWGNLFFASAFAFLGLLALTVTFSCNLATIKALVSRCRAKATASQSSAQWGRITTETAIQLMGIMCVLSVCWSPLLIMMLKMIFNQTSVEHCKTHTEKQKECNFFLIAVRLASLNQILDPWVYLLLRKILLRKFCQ
As to the kind of experiment: [3H]-PGE2 receptor binding assay, EP3 membranes. The settings on record: HEK293 membranes, geometric mean ± SEM, read-out: hEP1-4 receptor binding EP3 Ki. As to the method: as §1

For the next experiment, the target named is T5, human EP2 receptor (Homo sapiens, UniProt P43116).
T5 construct: host or cells: HEK293, transient; membrane preparation
T5 sequence (P43116 whole entry): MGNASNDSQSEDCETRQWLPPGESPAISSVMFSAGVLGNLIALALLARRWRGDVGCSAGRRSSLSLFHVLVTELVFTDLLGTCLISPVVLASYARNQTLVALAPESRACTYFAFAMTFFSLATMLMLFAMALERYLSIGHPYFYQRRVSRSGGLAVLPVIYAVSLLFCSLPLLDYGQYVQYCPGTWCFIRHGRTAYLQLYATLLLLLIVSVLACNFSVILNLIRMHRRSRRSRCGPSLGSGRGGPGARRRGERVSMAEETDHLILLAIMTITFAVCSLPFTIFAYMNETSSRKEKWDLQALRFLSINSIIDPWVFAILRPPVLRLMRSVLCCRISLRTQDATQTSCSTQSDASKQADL
As to the kind of experiment: [3H]-PGE2 receptor binding assay, EP2 membranes. The settings on record: HEK293 membranes; [3H]-PGE2; geometric mean ± SEM; read-out: hEP1-4 receptor binding EP2 Ki. The protocol:
as §1

The target in experiment [2] is T2, Human EP4. As to the kind of experiment: EP4 cAMP antagonist assay (HTRF), human EP4. The format is cell-based. The settings on record: HEK293 cells stably expressing human EP4; PGE2 at EC80; geometric mean ± SEM; read-out: cAMP Antagonism (hEP4) Human EP4 IC50. The protocol:
as §2, with “Cells were harvested using 0.25% Trypsin‐ EDTA, suspended in freeze media at a density of 10^7cel1s/mL, and aliquots were stored in liquid nitrogen.” left out
(§3) To measure the cAMP levels, cAMP‐d2 conjugate and anti cAMP‐cryptate conjugate in lysis buffer were incubated with the treated cells at room temperature for 1 h. […] The raw data were converted to cAMP (nmol/L) using a cAMP standard curve generated for each experiment. Data were analyzed using a 4‐parameter nonlinear logistic equation. Results are expressed as the geometric mean ± standard deviation or geometric mean ± standard error as noted.

Experiment [3] concerns the target T2, Human EP4. Briefly: PGE2 stimulated cAMP production by HEK293/EP4 cell line. The format is cell-based. As to the method: as §2, with “Cells were harvested using 0.25% Trypsin‐ EDTA, suspended in freeze media at a density of 10^7cel1s/mL, and aliquots were stored in liquid nitrogen.” left out
as §3
On the technique in general: cAMP levels reflect the balance of adenylyl cyclase and phosphodiesterase activity.

The subject of experiment [4] is male Lewis rats, adjuvant induced arthritis. Briefly: AIA model of inflammation (paw swelling). The class given is in vivo. The settings on record: rat AIA; 10 mg/kg oral once daily 4 days; P < 0.05 by Dunnett's test. The protocol: (§4) For the monoiodoacetate (MIA) and adjuvant induced arthritis (AIA) studies, male Lewis rats (Envigo, Indianapolis, IN) of approximately 8 weeks of age at the time of disease induction were used. For collagen induced arthritis studies (CIA) female Lewis rats (Charles River) weighing 150–170 g were used. Rats were housed in groups of 2 or 3 per cage and maintained in a constant temperature, and on a 12 h light/12 h dark cycle. Animals had free access to food and water at all times except during data collection.
On Day 0, paw widths of both right and left paws were measured between the lateral and dorsal surfaces using calipers, and a mean paw thickness for each rat was calculated by averaging these measurements. Rats were then inoculated intradermally with 0.25 mg of adjuvant (M. Tuberculosis H37 RA from Difco) in 100 μL of mineral oil at the base of the tail to induce adjuvant disease. Eleven days post inoculation paw widths of both right and left paws were measured again, and the percent change from the Day 0 reading was calculated. […] On the fifth day after dosing started (day 15 post adjuvant injection) the rats were euthanized without further dosing and paw width measured again. The percent increase in mean paw thickness from day 11 to day 15 was then calculated as a measure of paw swelling which is indicative of the amount of inflammation in the paws measured. […]

Experiment [5] deals with female Lewis rats, collagen induced arthritis. As to the kind of experiment: Type-II CIA model of inflammation and autoimmunity. The class given is in vivo. The settings on record: rat CIA. As to the method:
as §4
On day 1 of the study ankle widths are measured across the joint (left side to right side) at the thickest point with calipers and rats immunized intradermally near the base of the tail with 0.4 mL of 1 mg/mL type II collagen (Elastin Products) emulsified with incomplete Freund's adjuvant (Sigma Aldrich). A second booster injection booster of 0.4 mL of the collagen emulsion was given on day 8 of the study. Ankle widths were measured on day 8 before the collagen injection and every 2–3 days thereafter until study end. On day 11 rats were randomized into five groups of eight animals based on inflammation (redness and/or swelling) in their hind paws and body weight. Rats were then dosed with vehicle (10% Acacia plus 0.05% antifoam) and compound 3 at doses of 3, 10, and 30 mg/kg. Prednisolone was included at a dose of 10 mg/kg as a positive control. Dosing was by oral gavage once daily for seventeen days at a dose volume of 5 mL/kg. On day 28 rats were euthanized and hind paws and knee joints collected for histology. Ankles and knees were fixed in neutral buffered formalin, decalcified, embedded in paraffin, and sectioned according to standard histological methodology and the joints were then scored by a pathologist using published scoring criteria (Bendele 2001; Levine et al. 2014).

Setting [6] is: 10 mg/kg oral once daily for seventeen days.

T2 sequence (P35408 whole entry): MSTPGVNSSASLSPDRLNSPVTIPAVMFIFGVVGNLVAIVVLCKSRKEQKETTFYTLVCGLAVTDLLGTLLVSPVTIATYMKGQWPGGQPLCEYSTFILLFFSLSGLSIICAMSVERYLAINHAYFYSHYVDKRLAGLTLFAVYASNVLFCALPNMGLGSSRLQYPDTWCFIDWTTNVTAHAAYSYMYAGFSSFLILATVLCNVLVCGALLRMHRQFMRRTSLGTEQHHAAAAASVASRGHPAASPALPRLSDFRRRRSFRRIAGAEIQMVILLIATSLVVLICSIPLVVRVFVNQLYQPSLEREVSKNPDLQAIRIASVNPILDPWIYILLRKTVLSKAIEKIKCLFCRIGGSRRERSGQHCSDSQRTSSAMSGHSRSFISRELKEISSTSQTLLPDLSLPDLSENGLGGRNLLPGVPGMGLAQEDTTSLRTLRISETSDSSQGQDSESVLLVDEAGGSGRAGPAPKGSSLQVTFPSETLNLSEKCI
T3 sequence (P43114 whole entry): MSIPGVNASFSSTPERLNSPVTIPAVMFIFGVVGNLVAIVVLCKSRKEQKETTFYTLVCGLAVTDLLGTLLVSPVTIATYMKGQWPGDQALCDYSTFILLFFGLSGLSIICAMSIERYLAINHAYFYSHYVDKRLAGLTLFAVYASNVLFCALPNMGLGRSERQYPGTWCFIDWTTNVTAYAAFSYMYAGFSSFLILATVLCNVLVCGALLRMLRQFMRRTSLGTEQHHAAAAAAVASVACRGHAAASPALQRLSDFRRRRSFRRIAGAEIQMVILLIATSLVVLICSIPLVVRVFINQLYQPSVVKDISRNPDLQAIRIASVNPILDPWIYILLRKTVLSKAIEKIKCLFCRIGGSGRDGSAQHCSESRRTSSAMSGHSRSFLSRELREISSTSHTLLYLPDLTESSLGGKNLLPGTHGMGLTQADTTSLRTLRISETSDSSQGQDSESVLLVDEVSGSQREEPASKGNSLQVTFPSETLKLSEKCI

With `CCc1nc2c(C)nc(C)cc2n1-c1ccc(CCNC(=O)NS(=O)(=O)c2ccc(C)cc2)cc1` [CJ‐023,423, N‐[({2‐[4‐(2‐ethyl‐4, 6‐dimethyl‐1H‐imidazo [4, 5–c]pyridin‐1‐yl)phenyl]ethyl}amino)carbonyl]‐4‐methylbenzenesulfonamide, reference compound], the Ki is greater than 22900 nM at human EP1 receptor (HEK293 membranes, [3H]-PGE2, geometric mean ± SEM, read-out: hEP1-4 receptor binding EP1 Ki); 449 ± 123 nM on Human EP4 [1]; greater than 19500 nM on human EP3 receptor; greater than 21600 nM at human EP2 receptor. Besides, the “efficacy for signs and symptoms of OA” value in the experiment on dogs with osteoarthritis is “efficacious”. Moreover, the IC50 at Rat EP4 is 13.1 ± 1 nM; at Human EP4 [2] it was 12 nM and 11.7 nM.
For `CCCCC[C@H](O)/C=C/[C@H]1[C@H](O)CC(=O)[C@@H]1C/C=C\CCCC(=O)O` [PGE2, Prostaglandin (PG) E2], the “EC80 cAMP production” value on Human EP4 [3] (HEK 293 cells stably transfected with human EP4 cDNA, 20 min) was 0.34 nM. The “EC80 cAMP production (Fig. 2A)” value at Human EP4 [3] (HEK‐293 cells stably transfected with human EP4 cDNA, 20 min at room temperature) came to 0.34 nM.
On to `CCCCC[C@H](O)/C=C/[C@H]1[C@H](O)CC(=O)[C@@H]1C/C=C\CCCC(=O)O` [^3[H] PGE2], for which, at human EP1 receptor (read-out: ^3[H] PGE2 Binding/kd EP1, HEK 293 membranes, homologous competition (Fig. 3D)), the Kd is 5.62 nM.
Turning to `O=C(O)Cc1ccccc1Nc1c(Cl)cccc1Cl` [diclofenac, reference compound], the “increases in paw inflammation (swelling) compared to vehicle” value in experiment [4] was “significantly inhibited”.
For the compound `C[C@]12C=CC(=O)C=C1CC[C@@H]1[C@@H]2[C@@H](O)C[C@@]2(C)[C@H]1CC[C@]2(O)C(=O)CO` [prednisolone, Prednisolone], in experiment [5] (setting [6]), the “reduction in summed scores (ankle histology)” value came to 93% and the “reductions in all ankle scores (histology)” value is listed as 87–99%. Moreover, the ankle thickness result in experiment [5] (10 mg/kg oral once daily, data not shown) is given as “significant reduction”. In addition, the “knee joint histopathology (representative photomicrograph)” value in experiment [5] (Fig. 10 bottom panel, prednisolone 10 mg/kg, compound 3 dose not given) was “very minimal inflammation (S) and cartilage damage not visible at this magnification”. Moreover, the “ankle joint histopathology (representative photomicrograph)” value in experiment [5] (Fig. 10 top panel, prednisolone 10 mg/kg, compound 3 dose not given) is “minimal inflammation (S) and minimal cartilage damage”.

A word on the Ki: it is a measure of affinity in units of concentration, obtained from inhibition or displacement. By IC50 is commonly meant the point on the concentration scale where inhibition reaches its midpoint.
